The source made the active and inactive calls. The rule behind the calls is not given here.
Experiments:
[1] = Cellular uptake in human HCT116 cell cytoplasm at 100 uM by confocal fluorescence microscopy; type: ADME, cell-based; conditions: hct-116, 100 µM
HCT-116 = assay: Induction of nitric oxide release in human HCT116 cells at 25 uM incubated for 3 hrs followed by […] irradiation by DAR-4M/AM staining-based fluorescence microscopy relative to control; type: functional, cell-based
[2] = Induction of nitric oxide release in potassium phosphate buffer at pH 7.35 at 500 uM photoirradiated with 190 mW/cm'2 light for 15 mins by LC/ESI-MS analysis in presence of Fe2+/MGD2 complex; type: physicochemical; conditions: pH 7.35, 0.25 h
[3] = Induction of nitric oxide release in potassium phosphate buffer at pH 7.35 at 100 uM photoirradiated with 15 mW/cm'2 light for 10 mins by spectrometric analysis in presence of Fe2+/MGD2 complex; type: physicochemical; conditions: pH 7.35, 10 min
[4] = Induction of nitric oxide release in potassium phosphate buffer at pH 7.35 at 100 uM photoirradiated with 180 mW/cm'2 light for 15 mins by LC/ESI-MS analysis in presence of Fe2+/MGD2 complex; type: physicochemical; conditions: pH 7.35, 0.25 h

Q: Which results are given for `Cc1cc(/C=C/c2cc(=O)oc3cc(O)c(Br)cc23)cc(C)c1[N+](=O)[O-]`?
A: Drug uptake [1]: Active; Activity (HCT-116): Active; Activity [2]: Active; Activity [3]: Active

Q: For `CCN(CC)c1ccc2c(C)c(/C=C/c3cc(C)c([N+](=O)[O-])c(C)c3)c(=O)oc2c1`, which Activity [4] is on record?
A: Its Activity is “Not Active”.
